SMILES strings stand for the structures. Where two headings read alike, the source gives them in different places.

Consider five compounds from article PMC6019134, “1,2,6-Thiadiazinones as Novel Narrow Spectrum Calcium/Calmodulin-Dependent Protein Kinase Kinase 2 (CaMKK2) Inhibitors” (Molecules : A Journal of Synthetic Chemistry and Natural …, 2018).

Common to all, as to experiment: DSF thermal shift, kinase panel
What all share (assay type): binding

One assay concerns the target T1, MAPK1A (Homo sapiens, UniProt P28482).
T1 construct: purchased in-house (home-made panel, SGC-style construct names)
Particulars: 10 μM compound. As for the experimental part: (§1) The corresponding dianilino-TDZs (1–5) were tested on a panel of 46 protein kinases representing the major kinome branches at a concentration of 10 μM using a Differential Scanning Fluorimetry (DSF). Only analogues 1–3 induced a significant (>2 °C) thermal shift when incubated with a subset of the proteins (Table 1).
(§2) Kinase selectivity assay—A home-made kinase panel was generated for the following enzymes: AAK1, BMP2K, BMX, BRAF, CAMK1D, CAMK1G, CAMKK1, CAMKK2B, CDC42BPA, CDK2, CDKL1, CHEK2, CLK1, CSNK1G1, CSNK1G3, CSNK2A1, DYRK1A, DYRK2A, EPHA2, GAK, GSG2, MAPK1, MAP2K7, MAPK14B, MAPK3, PHKG2, PIM1, PLK1, PKMYT1, PRPF4B, RPS6KA1A, RPS6KA5A, RPS6KA6A, SLK, SRPK1, SRPK2, STK3, STK6, STK10, STK17A, STK24, STK38L, TRIB2, TTK, VRK1 and VRK2. Proteins were produced in E. coli, purified in a Ni-chelate column, followed by overnight digestion using TEV protease (made in house with an N-terminal 6xHis tag) and dialysis to remove imidazole. To clear samples of uncleaved proteins and the TEV protease, samples were loaded on new Ni-chelate columns. The flow through was collected, concentrated and loaded to a HiLoad Superdex 200 16/600 column (GE Healthcare, Chicago, IL, USA) for final polishing and buffer exchange.
(§3) Starting from 100 µM protein stocks, our kinase panel enzymes were diluted to 1 µM in buffer 100 mM K2HPO4 pH 7.5 containing 150 mM NaCl, 10% glycerol and 5X dye (Applied Biosystems catalogue 4461806). The protein/dye mixture was transferred to a 384-well PCR microplate having 20 µL per well. Compounds in DMSO at 10 mM concentration were added in 20 nL volume, using a liquid handling device setup with a pin head, to make 10 µM compound concentration in the assay plate.
(§4) Protein thermal shift data was measured in a qPCR instrument (Applied Biosystems QuantStudio 6) programmed to equilibrate the plate at 25 °C for 5 min followed by ramping the temperature to 95 °C at a rate of 0.05 °C/s. Data was processed using Protein Thermal shift software (Applied Biosystems) by fitting experimental curves to a Boltzmann function to calculate differential thermal shifts (dTm) referenced to protein/dye in 0.2% DMSO.

A further assay has as its target T2, CSNK2A1 (Homo sapiens, UniProt P68400).
T2 construct: purchased in-house (home-made panel, SGC-style construct names)
Particulars: read-out: ΔTm. As for the experimental part:
as §1, §2, §3, §4

Another assay has as its target T3, STK24A (Homo sapiens, UniProt Q9Y6E0).
T3 construct: TEV-cleavable (cleaved yes); made in house; host or cells: E. coli
Particulars: 10 μM compound. The method, then:
as §1, §2, §3, §4

A further assay has as its target T4, STK6A (Homo sapiens, UniProt O14965).
T4 construct: TEV-cleavable (cleaved yes); made in house; host or cells: E. coli
T4 sequence (O14965 1-403): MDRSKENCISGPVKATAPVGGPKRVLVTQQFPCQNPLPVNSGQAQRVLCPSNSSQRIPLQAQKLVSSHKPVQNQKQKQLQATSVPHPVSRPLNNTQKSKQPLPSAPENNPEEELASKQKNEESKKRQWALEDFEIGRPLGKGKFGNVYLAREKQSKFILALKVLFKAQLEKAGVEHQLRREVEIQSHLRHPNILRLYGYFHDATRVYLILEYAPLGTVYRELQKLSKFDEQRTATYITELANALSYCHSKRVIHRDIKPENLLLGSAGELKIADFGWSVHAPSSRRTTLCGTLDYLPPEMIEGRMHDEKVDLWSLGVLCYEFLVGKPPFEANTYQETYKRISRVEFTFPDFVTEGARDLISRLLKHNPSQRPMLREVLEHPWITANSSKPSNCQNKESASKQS
Particulars: 10 μM compound. The method, then: as §1, §2, §3, §4

Another assay has as its target T5, MAPK14B (Homo sapiens, UniProt Q16539).
T5 construct: purchased in-house (home-made panel, SGC-style construct names)
Particulars: 10 μM compound. The method, then:
as §1, §2, §3, §4

The next assay has as its target T6, DYRK2A (Homo sapiens, UniProt Q92630).
T6 construct: purchased in-house (home-made panel, SGC-style construct names)
T6 sequence (Q92630 1-601): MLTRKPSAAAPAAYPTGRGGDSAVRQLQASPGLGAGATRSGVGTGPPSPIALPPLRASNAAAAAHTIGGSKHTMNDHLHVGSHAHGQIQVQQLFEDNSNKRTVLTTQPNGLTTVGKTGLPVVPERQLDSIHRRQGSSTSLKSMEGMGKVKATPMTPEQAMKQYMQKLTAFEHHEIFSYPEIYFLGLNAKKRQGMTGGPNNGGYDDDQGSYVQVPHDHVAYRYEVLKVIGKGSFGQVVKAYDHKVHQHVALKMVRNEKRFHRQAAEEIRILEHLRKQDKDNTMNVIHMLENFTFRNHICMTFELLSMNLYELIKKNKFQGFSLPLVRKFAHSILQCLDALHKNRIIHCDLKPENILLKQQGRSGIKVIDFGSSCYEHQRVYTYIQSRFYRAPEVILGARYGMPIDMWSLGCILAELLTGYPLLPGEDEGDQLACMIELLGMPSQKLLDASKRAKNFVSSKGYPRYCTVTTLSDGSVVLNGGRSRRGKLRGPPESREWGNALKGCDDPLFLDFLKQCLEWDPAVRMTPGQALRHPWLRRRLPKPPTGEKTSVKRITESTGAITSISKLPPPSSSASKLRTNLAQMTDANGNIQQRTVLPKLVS
Particulars: 10 μM compound. As for the experimental part: as §1, §2, §3, §4

The next assay deals with T7, CDKL1 (Homo sapiens, UniProt Q00532).
T7 construct: purchased in-house (home-made panel, SGC-style construct names)
T7 sequence (Q00532 whole entry): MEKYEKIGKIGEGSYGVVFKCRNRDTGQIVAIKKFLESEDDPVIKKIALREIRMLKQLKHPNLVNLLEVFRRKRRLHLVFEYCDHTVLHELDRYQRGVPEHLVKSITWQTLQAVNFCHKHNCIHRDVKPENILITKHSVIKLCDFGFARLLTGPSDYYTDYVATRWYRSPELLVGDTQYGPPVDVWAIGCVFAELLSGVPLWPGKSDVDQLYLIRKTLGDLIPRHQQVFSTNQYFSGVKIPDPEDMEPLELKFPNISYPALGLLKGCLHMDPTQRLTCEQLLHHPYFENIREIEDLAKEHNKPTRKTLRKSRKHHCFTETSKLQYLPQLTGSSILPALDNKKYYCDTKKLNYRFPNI
Particulars: 10 μM compound. The method, then: as §1, §2, §3, §4

In the next assay the target is T8, EPHA2A (Homo sapiens, UniProt P29317).
T8 construct: purchased in-house (home-made panel, SGC-style construct names)
T8 sequence (P29317 24-976): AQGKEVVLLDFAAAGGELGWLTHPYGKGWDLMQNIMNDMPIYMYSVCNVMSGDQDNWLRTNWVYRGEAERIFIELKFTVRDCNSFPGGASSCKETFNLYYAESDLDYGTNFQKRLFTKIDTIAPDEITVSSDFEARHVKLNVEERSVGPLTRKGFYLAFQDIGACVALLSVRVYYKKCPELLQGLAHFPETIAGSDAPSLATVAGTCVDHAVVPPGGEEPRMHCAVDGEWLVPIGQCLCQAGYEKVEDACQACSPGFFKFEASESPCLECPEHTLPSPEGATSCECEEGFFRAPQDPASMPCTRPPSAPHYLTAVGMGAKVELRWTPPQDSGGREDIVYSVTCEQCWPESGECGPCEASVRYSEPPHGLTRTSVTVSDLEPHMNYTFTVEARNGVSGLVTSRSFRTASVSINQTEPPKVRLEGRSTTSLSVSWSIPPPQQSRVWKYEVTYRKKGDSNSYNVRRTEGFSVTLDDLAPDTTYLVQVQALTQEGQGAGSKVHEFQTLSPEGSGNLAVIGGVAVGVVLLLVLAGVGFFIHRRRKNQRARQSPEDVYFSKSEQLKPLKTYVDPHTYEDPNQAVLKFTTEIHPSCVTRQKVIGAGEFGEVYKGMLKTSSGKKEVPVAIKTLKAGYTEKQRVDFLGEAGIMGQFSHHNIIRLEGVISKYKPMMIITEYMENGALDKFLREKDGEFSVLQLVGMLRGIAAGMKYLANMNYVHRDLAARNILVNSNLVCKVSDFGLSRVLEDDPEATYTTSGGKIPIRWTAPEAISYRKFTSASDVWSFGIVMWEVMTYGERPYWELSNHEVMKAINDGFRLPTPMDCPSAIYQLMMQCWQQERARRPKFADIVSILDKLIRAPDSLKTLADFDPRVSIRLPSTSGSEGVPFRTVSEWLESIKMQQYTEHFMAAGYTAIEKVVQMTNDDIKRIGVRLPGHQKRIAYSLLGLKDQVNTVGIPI
Particulars: 10 μM compound. As for the experimental part:
as §1, §2, §3, §4

A further assay has as its target T9, VRK2A (Homo sapiens, UniProt Q86Y07).
T9 construct: TEV-cleavable (cleaved yes); made in house; host or cells: E. coli
Particulars: 10 μM compound. As for the experimental part:
as §1, §2, §3, §4

The target in the next assay is T10, SRPK1A (Homo sapiens, UniProt Q96SB4).
T10 construct: purchased in-house (home-made panel, SGC-style construct names)
T10 sequence (Q96SB4 whole entry): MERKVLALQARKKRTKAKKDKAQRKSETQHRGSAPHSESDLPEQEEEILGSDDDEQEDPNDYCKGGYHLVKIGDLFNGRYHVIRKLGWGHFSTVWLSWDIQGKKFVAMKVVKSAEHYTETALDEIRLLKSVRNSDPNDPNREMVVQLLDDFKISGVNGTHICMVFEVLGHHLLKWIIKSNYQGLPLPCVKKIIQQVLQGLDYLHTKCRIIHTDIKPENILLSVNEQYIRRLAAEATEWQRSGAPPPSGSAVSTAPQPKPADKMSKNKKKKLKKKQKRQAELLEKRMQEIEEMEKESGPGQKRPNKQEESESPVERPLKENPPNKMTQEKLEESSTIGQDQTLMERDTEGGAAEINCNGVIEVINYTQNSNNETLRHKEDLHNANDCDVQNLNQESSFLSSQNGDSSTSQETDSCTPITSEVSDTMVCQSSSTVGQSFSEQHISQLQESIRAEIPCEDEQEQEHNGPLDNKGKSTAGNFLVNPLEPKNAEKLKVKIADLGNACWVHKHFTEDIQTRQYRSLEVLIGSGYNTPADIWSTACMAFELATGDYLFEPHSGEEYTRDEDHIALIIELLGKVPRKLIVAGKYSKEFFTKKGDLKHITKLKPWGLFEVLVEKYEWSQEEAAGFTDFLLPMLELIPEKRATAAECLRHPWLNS
Particulars: 10 μM compound. As for the experimental part: as §1, §2, §3, §4

A further assay deals with T11, MAPK3A (Homo sapiens, UniProt P27361).
T11 construct: purchased in-house (home-made panel, SGC-style construct names)
T11 sequence (P27361 whole entry): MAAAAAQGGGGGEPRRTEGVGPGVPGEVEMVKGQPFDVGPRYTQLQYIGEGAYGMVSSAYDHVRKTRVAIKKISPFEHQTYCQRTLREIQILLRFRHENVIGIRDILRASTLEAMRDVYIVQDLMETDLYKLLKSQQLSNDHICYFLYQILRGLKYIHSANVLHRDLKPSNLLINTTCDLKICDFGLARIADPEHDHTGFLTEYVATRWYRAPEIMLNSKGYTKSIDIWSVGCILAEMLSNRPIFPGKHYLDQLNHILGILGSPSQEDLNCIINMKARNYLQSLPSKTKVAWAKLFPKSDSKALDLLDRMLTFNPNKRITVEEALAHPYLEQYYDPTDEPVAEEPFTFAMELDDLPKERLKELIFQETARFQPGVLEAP
Particulars: 10 μM compound. As for the experimental part:
as §1, §2, §3, §4

T3 sequence (Q9Y6E0 whole entry): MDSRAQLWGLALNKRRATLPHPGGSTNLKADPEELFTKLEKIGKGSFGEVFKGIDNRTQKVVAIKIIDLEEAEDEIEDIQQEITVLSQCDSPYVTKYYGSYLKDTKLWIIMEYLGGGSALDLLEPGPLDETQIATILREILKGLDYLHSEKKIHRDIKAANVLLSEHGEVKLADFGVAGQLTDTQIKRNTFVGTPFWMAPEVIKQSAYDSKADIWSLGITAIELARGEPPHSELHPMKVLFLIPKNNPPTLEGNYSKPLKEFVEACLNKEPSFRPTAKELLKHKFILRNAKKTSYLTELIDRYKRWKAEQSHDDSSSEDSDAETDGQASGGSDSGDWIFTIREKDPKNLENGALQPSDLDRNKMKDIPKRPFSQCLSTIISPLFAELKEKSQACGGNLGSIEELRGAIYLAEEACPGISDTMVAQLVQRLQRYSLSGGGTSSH
T5 sequence (Q16539 whole entry): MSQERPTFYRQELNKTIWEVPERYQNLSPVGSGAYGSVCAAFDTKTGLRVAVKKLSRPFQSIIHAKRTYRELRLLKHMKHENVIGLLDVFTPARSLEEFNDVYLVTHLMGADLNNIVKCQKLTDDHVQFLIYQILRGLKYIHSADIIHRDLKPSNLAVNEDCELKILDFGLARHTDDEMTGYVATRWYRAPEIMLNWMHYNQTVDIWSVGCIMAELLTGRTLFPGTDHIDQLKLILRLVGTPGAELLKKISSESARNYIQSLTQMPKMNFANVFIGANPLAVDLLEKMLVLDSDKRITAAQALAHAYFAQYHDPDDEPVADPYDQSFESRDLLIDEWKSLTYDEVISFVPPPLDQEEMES
T9 sequence (Q86Y07 whole entry): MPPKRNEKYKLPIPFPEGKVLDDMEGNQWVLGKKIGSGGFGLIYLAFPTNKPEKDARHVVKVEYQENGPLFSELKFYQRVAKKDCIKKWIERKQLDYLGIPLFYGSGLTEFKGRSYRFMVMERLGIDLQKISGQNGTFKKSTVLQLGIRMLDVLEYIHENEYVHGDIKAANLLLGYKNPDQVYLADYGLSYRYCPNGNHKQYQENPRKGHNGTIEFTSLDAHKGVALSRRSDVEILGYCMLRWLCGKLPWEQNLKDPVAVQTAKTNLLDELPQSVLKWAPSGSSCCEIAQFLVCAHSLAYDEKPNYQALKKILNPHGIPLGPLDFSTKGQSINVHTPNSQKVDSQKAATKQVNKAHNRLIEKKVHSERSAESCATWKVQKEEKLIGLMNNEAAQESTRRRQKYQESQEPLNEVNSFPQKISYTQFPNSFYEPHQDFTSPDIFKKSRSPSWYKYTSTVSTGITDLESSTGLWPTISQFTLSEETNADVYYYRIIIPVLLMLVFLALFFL
T2 sequence (P68400 whole entry): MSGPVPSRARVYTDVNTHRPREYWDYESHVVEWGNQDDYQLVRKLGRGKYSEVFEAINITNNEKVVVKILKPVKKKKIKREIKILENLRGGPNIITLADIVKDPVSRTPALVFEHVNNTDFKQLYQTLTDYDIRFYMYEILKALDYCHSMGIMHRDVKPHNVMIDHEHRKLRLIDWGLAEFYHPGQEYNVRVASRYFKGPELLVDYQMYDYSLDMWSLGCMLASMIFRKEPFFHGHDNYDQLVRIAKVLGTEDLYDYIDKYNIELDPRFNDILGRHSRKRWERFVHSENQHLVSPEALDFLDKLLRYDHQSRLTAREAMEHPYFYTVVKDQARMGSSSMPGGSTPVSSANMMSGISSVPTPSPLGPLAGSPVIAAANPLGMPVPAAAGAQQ
T1 sequence (P28482 whole entry): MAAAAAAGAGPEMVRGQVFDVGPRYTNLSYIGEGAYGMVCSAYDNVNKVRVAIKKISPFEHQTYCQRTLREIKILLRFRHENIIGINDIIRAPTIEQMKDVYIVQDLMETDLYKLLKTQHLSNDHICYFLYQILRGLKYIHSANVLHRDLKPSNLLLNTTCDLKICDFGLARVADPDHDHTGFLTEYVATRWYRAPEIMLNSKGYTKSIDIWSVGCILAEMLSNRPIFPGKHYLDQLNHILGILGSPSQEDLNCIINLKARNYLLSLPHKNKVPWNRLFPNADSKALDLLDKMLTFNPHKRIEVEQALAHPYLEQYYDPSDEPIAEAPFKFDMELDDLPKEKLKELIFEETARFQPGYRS

For the compound `Cc1ccc(Nc2nsnc(Nc3cccc(C(N)=O)c3)c2=O)cc1O` [Compound 1, 3-({5-[(3-Hydroxy-4-methylphenyl)amino]-4-oxo-4H-1,2,6-thiadiazin-3-yl}amino)benzamide], the shift in melting temperature (ΔTm) at 10 µM was -0.2 °C on MAPK1A; -0.9 °C on CSNK2A1 (DSF, 10 μM compound); -0.1 °C on STK24A; -0.3 °C at STK6A; 0 °C at MAPK14B; 0.1 °C on DYRK2A. For the same compound, the ΔTm at 10 µM at CDKL1 is 1.2 °C; on EPHA2A it was 0.2 °C; on VRK2A it was -0.6 °C; at SRPK1A, 0 °C; on MAPK3A it was 0.1 °C.
As for `Cc1ccc(Nc2nsnc(Nc3ccc(C(N)=O)cc3)c2=O)cc1O` [Compound 2, 4-({5-[(3-Hydroxy-4-methylphenyl)amino]-4-oxo-4H-1,2,6-thiadiazin-3-yl}amino)benzamide], the ΔTm at 10 µM is 1.4 °C at MAPK1A; -0.2 °C at CSNK2A1; 1 °C on STK6A; 0.6 °C at MAPK14B; 2.4 °C on DYRK2A; 1 °C at CDKL1. For the same compound, the ΔTm at 10 µM at EPHA2A was 0.5 °C; at VRK2A, 1.8 °C; at SRPK1A, 1.8 °C; on MAPK3A it was 1.2 °C.
Turning to `Cc1ccc(Nc2nsnc(Nc3ccc4c(c3)CS(=O)(=O)C4)c2=O)cc1O` [Compound 3, 3-[(2,2-Dioxido-1,3-dihydrobenzo[c]thiophen-5-yl)amino]-5-[(3-hydroxy-4-methylphenyl)amino]-4H-1,2,6-thiadiazin-4-one], the thermal shift (ΔTm) at 10 µM on MAPK1A is 0.1 °C; at CSNK2A1 (DSF, 10 μM compound) it was -0.6 °C; on STK24A, -0.3 °C; at STK6A, 0.1 °C; on MAPK14B, 1 °C; on DYRK2A, 0.7 °C. Besides, the shift in melting temperature (ΔTm) at 10 µM on CDKL1 came out at 0.9 °C; on EPHA2A it was 0.8 °C; on VRK2A it was 0.1 °C; on SRPK1A, 0 °C; on MAPK3A, 0.4 °C.
For `CNC(=O)c1ccccc1Nc1nsnc(Nc2cccc(CS(C)(=O)=O)c2)c1=O` [Compound 4, N-Methyl-2-([5-({3-[(methylsulfonyl)methyl]phenyl}amino)-4-oxo-4H-1,2,6-thiadiazin-3-yl]-amino}-benzamide], the ΔTm at 10 µM at MAPK1A was -0.3 °C; on CSNK2A1 (DSF, 10 μM compound) it was -0.4 °C; on STK24A, 0 °C; at STK6A, -0.1 °C; at MAPK14B, -0.2 °C; at DYRK2A, 0.1 °C. In addition, the ΔTm at 10 µM was 0.5 °C at CDKL1; -0.1 °C on EPHA2A; -0.3 °C on VRK2A; 0 °C at SRPK1A; 0.1 °C at MAPK3A.
Regarding `CNC(=O)c1ccccc1Nc1nsnc(Nc2ccc(N3CCOCC3)cc2)c1=O` [Compound 5, N-Methyl-2-({5-[(4-morpholinophenyl)amino]-4-oxo-4H-1,2,6-thiadiazin-3-yl}amino)benzamide], the ΔTm at 10 µM at MAPK1A was -0.3 °C; at CSNK2A1 (DSF, 10 μM compound), -0.4 °C; at STK24A it was -1.1 °C; at STK6A, 0.5 °C; on MAPK14B, -0.3 °C; at DYRK2A it was 0.1 °C. The ΔTm at 10 µM at CDKL1 was 0.5 °C; at EPHA2A, 0 °C; on VRK2A, -0.3 °C; on SRPK1A it was 0 °C; at MAPK3A it was 0.1 °C.

What is called ΔTm is the shift of the melting midpoint relative to a reference.
